Reference: patent publication US6248768A, “Benzimidazole derivatives and pharmacologically acceptable salts thereof” (Taiho Pharmaceutical Co., Ltd., priority 1997, dated 2001)

How the values were obtained:
[1] = tested on: IL-4 production by CD4^+ T cells; assay: Interleukin-4 (IL-4) Production Inhibitory Activity; assay type: cell-based; settings: 24 h; mouse spleen CD4^+ T cells; IL-4 in supernatant by ELISA after 1 day; read-out: IL-4 production inhibition IC50
Method: Interleukin-4 (IL-4) Production Inhibitory Activity
This test was carried out in accordance with the method of Shelby et al. (J. Allergy Clin. Immunol., Vol. 100, No. 4, 511-519 (1997)). That is, CD4^+ T cells were purified from mouse spleen cells and suspended in 10% FCS-containing RPMI 1640 culture medium, and the cell suspension was inoculated into wells of a 24 well culture plate, which had been coated with anti-rat IgG, at a density of 3×10^6 cells per well. Anti-mouse CD3 antibody and anti-mouse CD28 antibody were added thereto, and the cells were cultured at 37° C. for 3 days in an atmosphere of 5% CO2. The thus grown cells were recovered, washed three times with HBSS (Hank's balanced salt solution) and then suspended in 10% FCS-containing RPMI 1640 culture medium. The cell suspension was inoculated into wells of a 24 well culture plate at a density of 1×10^6 cells per well, mixed with IL-2 and cultured for additional 3 days. The resulting cells were recovered, washed three times with HBSS and then suspended in 10% FCS-containing RPMI 1640 culture medium. The cell suspension was inoculated into wells of a 24 well culture plate, which had been coated with anti-rat IgG, at a density of 2×10^6 cells per well, anti-mouse CD3 antibody and anti-mouse CD28 antibody were added thereto, and the cells were again cultured for 1 day. The culture supernatant was recovered from each well to measure the amount of produced IL-4 by ELISA. Each drug to be tested was treated at the time of the second addition of anti-mouse CD3 antibody and anti-mouse CD28 antibody to calculate its inhibition percentage based on the control IL-4 production by the addition of the solvent alone, and IC50 (50% inhibition concentration) of each drug to be tested was calculated based on the regression line.

PDE(IV) = assay: Phosphodiesterase IV (PDE (IV)) Inhibitory Activity; assay type: biochemical; settings: rat brain PDE(IV); 3H-cAMP 1 μM; 37° C., 10 minutes; read-out: PDE(IV) inhibition IC50
Method: Phosphodiesterase IV (PDE (IV)) Inhibitory Activity
Purification of PDE (IV) and measurement of its activity were carried out by partially modifying the method of Saeki et al. (Biochem. Pharmacol., Vol. 46, 833-839, 1993). That is, PDE(IV) was purified by centrifuging rat brain homogenate at 105,000×g, applying the resulting supernatant to a Q-Sepharose column and then eluting the protein with a density gradient of 0 to 0.5 M NaCl.
Activity of PDE(IV) was measured by the following two step procedure. Using 3H-cAMP (1 μM in final concentration) as the substrate, the reaction was carried out at 37° C. for 10 minutes in a reaction solution containing tris(hydroxyl)aminomethane (50 mM, pH B8.0), EGTA (0.1 mM) and MgCl2 (0.1 mM) and then the reaction was stopped by incubating the reaction solution at 95° C. for 5 minutes. The thus formed 5'-AMP was hydrolyzed with 5'-nucleotidase, and AG1 X-8 resin was added thereto to effect adsorption of unreacted CAMP. After centrifugation, 3H-adenosinewas counted using a scintillation counter.

[2] = tested on: Mouse ear edema reaction (egg albumin-induced); assay: Ear Edema Reaction Inhibitory Activity in Mice; assay type: in vivo, BALB/c mice; settings: oral, 1 hour before induction, ear thickness 1 hour after induction
Method: Ear Edema Reaction Inhibitory Activity in Mice [Test Inflammation]
This test was test was carried out in accordance with the method of Sawada et al. (Clin. Exp. Allergy, Vol. 27, pp. 225-231, 1996). Each of BALB/c mice was immunized by the intraperitoneal injection of 1 μg of egg albumin which had been adsorbed to 1 mg of ALUM. After 14 days of the immunization, ear edema reaction was induced by intracutaneous injection of 1 μg of egg albumin into mouse earlobe. Ear edema (×10^2 mm) was calculated by measuring thickness of the ear before and 1 hour after the induction with a dial thickness gage (Peacok). Each of the drugs to be tested (compounds 1 and 2) was suspended in 0.5% hydropropylmethylcellulose (HPMC) solution and orally administered 1 hour before the reaction induction. Ear edema caused by the antigen was calculated by subtracting ear edema after respective time of induction in the case of the same treatment of normal mice, and the ear edema inhibition ratio (%) of the drugs to be tested was calculated based on the solvent-administered (control) group.

[3] = tested on: Airway reactivity acceleration (antigen-induced); assay: Antigen-Induced Airway Reactivity Acceleration Inhibitory Activity in Mice [Test on Chronic Inflammation]; assay type: in vivo, BALB/c mice; settings: oral, once a day for 10 days, acetylcholine 30 μg/animal i.v.
Method: Antigen-Induced Airway Reactivity Acceleration Inhibitory Activity in Mice [Test on Chronic Inflammation]
The model for this test was prepared out in accordance with the method of Nagai et al. (Life Sciences, Vol. 54, pp. 471-475, 1994). Each of BALB/c mice was immunized by the intraperitoneal injection of 1 μg of egg albumin which had been adsorbed to 1 mg of ALUM. After 14 days of the immunization, each animal was exposed to 1% egg albumin solution using an ultrasonic nebulizer, and this treatment was repeated three times at 3 day intervals. After 24 hours of the final exposure, the airway contraction reaction against intravenously injected acetylcholine (30 μg/animal) was measured as overflow volume (×0.01 ml) by the modified method of Konzett and Rossler under pentobarbital anesthesia. Each of the drugs to be tested (compounds 1 and 2) was suspended in 0.5% HPMC solution and orally administered once a day for a total of 10 days starting from the day before the antigen exposure until the day of final exposure. Accelerated quantity of the airway contraction reaction caused by the antigen exposure was calculated by subtracting the contraction reaction against intravenously injected acetylcholine in the case of the same treatment of normal mice, and the airway reactivity acceleration inhibition ratio (%) of the drugs to be tested was calculated based on the solvent-administered (control) group.

IL-4 production = settings: in words, background art; cited from earlier work

SMILES	IC50 [1]	IC50 (PDE(IV))	Mouse ear edema reaction inhibition ([2]; 30 mg/kg)	Airway reactivity acceleration inhibition ([3]; 30 mg/kg)	further results
COc1ccc(-c2nc3ccc(-n4cncn4)cc3[nH]2)cc1OC(C)C [Compound 1, 2-(3-isopropoxy-4-methoxyphenyl)-5-(1,2,4-triazol-1-yl)benzimidazole]	4.3 µM	0.02 µM	60%	–	Airway reactivity acceleration inhibition ([3]; 10 mg/kg): 58%
COc1ccc(-c2nc3ccc(-n4cncn4)cc3[nH]2)cc1OC1CCCC1 [Compound 2, 2-(3-cyclopentyloxy-4-methoxyphenyl)-5-(1,2,4-triazol-1-yl)benzimidazole]	–	–	78%	47%	–
COc1ccc(-c2nc3cc(-n4cncn4)ccc3[nH]2)cc1OCC1CC1 [Compound 11]	5.5 µM	1.6 µM	–	–	–
COc1ccc(-c2nc3ccc(-n4cncn4)cc3[nH]2)cc1OC1C=CCCC1 (stereo not drawn) [Compound 14, 2-[3-(2-cyclohexenyloxy)-4-methoxyphenyl]-5-(1,2,4-triazol-1-yl)benzimidazole]	6.1 µM	0.54 µM	–	–	–
COc1ccc(-c2nc3cc(-n4cncn4)ccc3[nH]2)cc1OC/C=C/c1ccccc1 [Compound 18]	5.1 µM	0.051 µM	–	–	–
COc1ccc(-c2nc3cc(-n4cncn4)ccc3[nH]2)cc1OC1C=CCCCC1 (stereo not drawn) [Compound 25]	2.8 µM	0.73 µM	–	–	–
COc1ccc(-c2nc3cc(-n4cncn4)ccc3[nH]2)c(OC)c1 [Control compound 2]	–	–	17%	30%	–
COc1ccc(-c2nc3cc(C(=O)O)ccc3[nH]2)cc1OC1CCCC1 [Control compound 4]	–	–	–	-17%	Mouse ear edema reaction inhibition ([2]; 100 mg/kg): 0%
COc1ccc(-c2nc3cc(C(=O)O)ccc3[nH]2)cc1OC1Cc2ccccc2C1 [Control compound 5]	–	–	–	-3%	Mouse ear edema reaction inhibition ([2]; 100 mg/kg): 0%
COc1ccc(/C(C)=N/OC(N)=O)cc1OC1CCCC1 [PDA-641]	–	–	–	–	IL-4 production inhibitory activity (IL-4 production): weak
